The values below come from ChEMBL document CHEMBL4325823 (Medchemcomm, 2018).

pIC50, pKd: −log10 of the molar value.

Assay [1] concerns Enterobacteriaceae. Kind of assay: Inhibition of beta lactamase CTX-M-14 in CTX-M-15 deficient Enterobacteriaceae assessed as potentiation of ceftazidime-induced antibacterial activity by measuring ceftazidime MIC by broth microdilution method. In general terms: Dilution methods test growth across graded concentrations, often in twofold steps.
For assay [2], the system named is Enterobacteriaceae. Nature of the assay: Inhibition of beta lactamase CTX-M-15 in KPC/NDM1 deficient Enterobacteriaceae assessed as potentiation of ceftazidime-induced antibacterial activity by measuring ceftazidime MIC by broth microdilution method.
Assay [3] deals with Pseudomonas aeruginosa. Nature of the assay: Inhibition of beta lactamase in Pseudomonas aeruginosa assessed as potentiation of imipenem-induced antibacterial activity by measuring […] MIC at 4 ug/ml (reference value: 16 ug/ml).
Assay [4] relates to Enterobacteriaceae. Kind of assay: Inhibition of beta lactamase KPC in Enterobacteriaceae assessed as potentiation of ceftazidime-induced antibacterial activity by measuring ceftazidime MIC by broth microdilution method.
Assay [5] deals with Enterobacteriaceae. Kind of assay: Inhibition of beta lactamase SHV in Enterobacteriaceae assessed as potentiation of ceftazidime-induced antibacterial activity by measuring ceftazidime MIC by broth microdilution method.
Assay [6] deals with Pseudomonas aeruginosa. Nature of the assay: Inhibition of beta lactamase in Pseudomonas aeruginosa assessed as potentiation of ceftazidime-induced antibacterial activity by measuring ceftazidime MIC at 4 ug/ml (reference value: 64 ug/ml).
Assay [7] concerns Enterobacteriaceae. Kind of assay: Inhibition of beta lactamase CMY-2 in CTX-M-15/CTX-M-14/KPC/NDM1 deficient Enterobacteriaceae assessed as potentiation of ceftazidime-induced antibacterial activity by measuring ceftazidime MIC by broth microdilution method.
Assay [8] can be described thus: Binding affinity to Zn2+ by isothermal calorimetric method. In general terms: ITC needs no label: the signal is the heat of the interaction.
Assay [9] in a line: Inhibition of bacterial VIM2 expressed in Escherichia coli BL21(DE3) using nitrocefin as substrate measured after 5 to 10 mins. Set-up: species or system Bacteria.
Assay [10] is described as follows: Inhibition of bacterial NDM1 expressed in Escherichia coli BL21(DE3) using nitrocefin as substrate measured after 5 to 10 mins. Set-up: species or system Bacteria.
Assay [11] can be described thus: Inhibition of bacterial beta lactamase class C. Set-up: species or system Bacteria.
Assay [12] is described as follows: Inhibition of bacterial Class A beta-lactamase. On the set-up: species or system Bacteria.
In assay [13] the test system is Acinetobacter baumannii. Kind of assay: Inhibition of beta lactamase in Acinetobacter baumannii assessed as potentiation of sulbactam-induced antibacterial activity by measuring sulbactam MIC90 at 4 ug/ml (reference value: 64 ug/ml).
In another assay the target is Beta-lactamase (Acinetobacter baumannii, UniProt Q8RLA6). Nature of the assay: Inhibition of Acinetobacter baumannii OXA-24.
For assay [14], the system named is Acinetobacter baumannii. Kind of assay: Inhibition of beta lactamase in Acinetobacter baumannii assessed as potentiation of imipenem-induced antibacterial activity by measuring fold reduction in imipenem MIC at 4 ug/ml.
Assay [15] concerns Enterobacteriaceae. Nature of the assay: Inhibition of ESBL in Enterobacteriaceae assessed as potentiation of cefepime-induced antibacterial activity by measuring cefepime MIC by broth microdilution method.
The test system of assay [16] is Klebsiella pneumoniae. Kind of assay: Inhibition of beta lactamase KPC in Klebsiella pneumoniae assessed as potentiation of meropenem-induced antibacterial activity by measuring fold reduction in meropenem MIC.
In assay [17] the test system is Klebsiella pneumoniae. Kind of assay: Inhibition of beta lactamase class C in Klebsiella pneumoniae assessed as potentiation of meropenem-induced antibacterial activity by measuring fold reduction in meropenem MIC.
Assay [18] concerns Klebsiella pneumoniae. Nature of the assay: Inhibition of beta lactamase OXA in Klebsiella pneumoniae assessed as potentiation of meropenem-induced antibacterial activity by measuring fold reduction in meropenem MIC.
Assay [19] concerns Pseudomonas aeruginosa. Nature of the assay: Inhibition of beta lactamase in Pseudomonas aeruginosa assessed as potentiation of ceftazidime-induced antibacterial activity by measuring ceftazidime MIC by broth microdilution method.
A further assay relates to Prevotella sp. Nature of the assay: Inhibition of beta lactamase in Prevotella sp. clinical isolate assessed as potentiation of ceftolozane-induced antibacterial activity by measuring ceftolozane MIC90.
The next assay has as its system Bacteroides fragilis. Nature of the assay: Inhibition of beta lactamase in Bacteroides fragilis assessed as potentiation of ceftolozane-induced antibacterial activity by measuring ceftolozane MIC90.
The test system of assay [20] is Pseudomonas aeruginosa. Nature of the assay: Inhibition of beta lactamase in Pseudomonas aeruginosa assessed as potentiation of ceftolozane-induced antibacterial activity by measuring ceftolozane MIC by broth microdilution method.
The subject of assay [21] is Pseudomonas aeruginosa. Nature of the assay: Inhibition of beta lactamase in Pseudomonas aeruginosa assessed as potentiation of colistin-induced antibacterial activity by measuring colistin MIC90.
Assay [22] deals with Pseudomonas aeruginosa. Nature of the assay: Inhibition of beta lactamase in Pseudomonas aeruginosa assessed as potentiation of meropenem-induced antibacterial activity by measuring meropenem MIC90.
In assay [23] the test system is Pseudomonas aeruginosa. Nature of the assay: Inhibition of beta lactamase in Pseudomonas aeruginosa assessed as potentiation of ceftazidime-induced antibacterial activity by measuring fold reduction in ceftazidime MIC90 at 4 ug/ml relative to ceftazidime alone.
Assay [24] relates to Pseudomonas aeruginosa. Kind of assay: Inhibition of beta lactamase in Pseudomonas aeruginosa assessed as potentiation of piperacillin-induced antibacterial activity by measuring piperacillin MIC by broth microdilution method.
The test system of a further assay is Escherichia coli. Nature of the assay: Inhibition of ESBL in Escherichia coli clinical isolate assessed as potentiation of ceftolozane-induced antibacterial activity by measuring ceftolozane MIC by broth microdilution method.
Assay [25] relates to Enterobacteriaceae. Kind of assay: Inhibition of beta lactamase in Enterobacteriaceae clinical isolate assessed as potentiation of ceftolozane-induced antibacterial activity by measuring ceftolozane MIC by broth microdilution method.
The test system of assay [26] is Pseudomonas aeruginosa. Kind of assay: Inhibition of beta lactamase in Pseudomonas aeruginosa assessed as potentiation of ceftolozane-induced antibacterial activity by measuring ceftolozane MIC90.
A further assay relates to Fusobacterium sp. Nature of the assay: Inhibition of beta lactamase in Fusobacterium sp. clinical isolate assessed as potentiation of ceftolozane-induced antibacterial activity by measuring ceftolozane MIC90.
The nature of assay [27]: Inhibition of bacterial NDM1. Set-up: species or system Bacteria.

Beta-lactamase, sequence (Q8RLA6 whole entry): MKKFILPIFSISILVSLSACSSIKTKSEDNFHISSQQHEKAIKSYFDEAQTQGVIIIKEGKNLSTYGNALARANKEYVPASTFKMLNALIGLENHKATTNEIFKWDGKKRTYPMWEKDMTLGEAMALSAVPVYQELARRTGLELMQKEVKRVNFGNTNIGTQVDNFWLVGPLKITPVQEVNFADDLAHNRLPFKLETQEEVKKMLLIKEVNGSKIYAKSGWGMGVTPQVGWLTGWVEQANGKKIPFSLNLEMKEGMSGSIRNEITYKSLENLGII

For the molecule `NC(=O)[C@@H]1CC[C@@H]2CN1C(=O)N2OS(=O)(=O)O`, the MIC90 with Enterobacteriaceae [1] is less than 2 mg/L; in the assay on Enterobacteriaceae [2], less than 2 mg/L; in the assay with Pseudomonas aeruginosa [3], 2 mg/L; in the assay on Enterobacteriaceae [4] it was less than 2 mg/L; in the assay with Enterobacteriaceae [5], less than 2 mg/L; with Pseudomonas aeruginosa [6], 8 mg/L. For the same molecule, the MIC90 in the assay with Enterobacteriaceae [7] was less than 2 mg/L.
For `N[C@@H](CN[C@@H](CN[C@@H](CC(=O)O)C(=O)O)C(=O)O)C(=O)O`, in [8], the pKd (in general, −log10 of the Kd, conventionally taken in molar units) was 6.70. The negative logarithm of the IC50 (pIC50) (usually the IC50 on a negative log10 scale, so that one unit is a factor of ten) in [9] is 5.02; in assay [10] it was 5.40.
Take `O=C(NOC1CCNC1)[C@@H]1CC2(CC2)[C@@H]2CN1C(=O)N2OS(=O)(=O)O` (stereo partly drawn): the negative logarithm of the IC50 (pIC50) in assay [11] and in assay [12] was more than 7.72 each time.
As to `CC1=C[C@@H]2CN(C(=O)N2OS(=O)(=O)O)[C@@H]1C(N)=O` [DURLOBACTAM], the MIC90 in the assay with Acinetobacter baumannii [13] worked out at 4 mg/L. The molecule further showed a pIC50 at Beta-lactamase of 6.16. In addition, the fold change (FC) in the assay with Acinetobacter baumannii [14] was determined as 8.
Regarding `Cn1cc[n+](C[C@@]2(C)[C@H](C(=O)[O-])N3C(=O)C[C@H]3S2(=O)=O)n1`, in the assay with Enterobacteriaceae [15], the MIC50 was 0.125 mg/L and the MIC90 came out at 0.5 mg/L.
Take `NC[C@H]1CC([C@@H]2CC[C@@H]3CN2C(=O)N3OS(=O)(=O)O)=NO1`: the fold change (FC) in the assay on Klebsiella pneumoniae [16], in the assay with Klebsiella pneumoniae [17] and with Klebsiella pneumoniae [18] was less than 1024 throughout.
Regarding `C[C@]1(Cn2ccnn2)[C@H](C(=O)O)N2C(=O)C[C@H]2S1(=O)=O`, the MIC90 with Pseudomonas aeruginosa [19] was 32 mg/L; in the assay on Prevotella sp., less than 0.125 mg/L; in the assay on Bacteroides fragilis, 4 mg/L; in the assay with Pseudomonas aeruginosa [20], 2 mg/L; with Pseudomonas aeruginosa [21], 2 mg/L; in the assay on Pseudomonas aeruginosa [22], 8 mg/L. The MIC90 in the assay with Pseudomonas aeruginosa [24] is more than 64 mg/L; in the assay with Escherichia coli, 4 mg/L; in the assay on Enterobacteriaceae [25] it was 1 mg/L; in the assay with Pseudomonas aeruginosa [26] it was 1 mg/L; in the assay on Fusobacterium sp. it was less than 0.125 mg/L. Further, the fold change (FC) with Pseudomonas aeruginosa [23] turned out to be 2.
In assay [27], `CC(C)c1cccc2c(-c3ccc(Cn4cccn4)cc3)c(C(=O)O)[nH]c12` had a pIC50 of 9.30.
